Laboratory results taken from ChEMBL document CHEMBL4507264, “Data for DCP probe BAY-7598” (2021).

Columns and labels:
[1] = tested on: Epidermal growth factor receptor (Homo sapiens), P00533 [T790M]; conditions: Compound concentration 1000.0 nM
[2] = target: Interleukin-1 receptor-associated kinase 4 (Homo sapiens) (UniProt Q9NWZ3); conditions: Compound concentration 1000.0 nM
[3] = target: Phosphatidylinositol 3-kinase catalytic subunit type 3 (Homo sapiens) (UniProt Q8NEB9); conditions: Compound concentration 1000.0 nM
[4] = target: MAP/microtubule affinity-regulating kinase 4 (Homo sapiens) (UniProt Q96L34); conditions: Compound concentration 1000.0 nM
[5] = target: LIM domain kinase 1 (Homo sapiens) (UniProt P53667); conditions: Compound concentration 1000.0 nM
[6] = target: Ephrin type-A receptor 6 (Homo sapiens) (UniProt Q9UF33); conditions: Compound concentration 1000.0 nM
[7] = target: Serine/threonine-protein kinase PLK4 (Homo sapiens) (UniProt O00444); conditions: Compound concentration 1000.0 nM
[8] = target: Serine/threonine-protein kinase PLK1 (Homo sapiens) (UniProt P53350); conditions: Compound concentration 1000.0 nM
[9] = target: Receptor-type tyrosine-protein kinase FLT3 (Homo sapiens) (UniProt P36888); conditions: Compound concentration 1000.0 nM
[10] = target: Tyrosine-protein kinase CSK (Homo sapiens) (UniProt P41240); conditions: Compound concentration 1000.0 nM
[11] = target: Tyrosine-protein kinase receptor Tie-1 (Homo sapiens) (UniProt P35590); conditions: Compound concentration 1000.0 nM
[12] = tested on: eIF-2-alpha kinase GCN2 (Homo sapiens), Q9P2K8 [S808G]; conditions: Compound concentration 1000.0 nM
Sequence of eIF-2-alpha kinase GCN2 (Homo sapiens), Q9P2K8 [S808G] (Q9P2K8 whole entry S808G): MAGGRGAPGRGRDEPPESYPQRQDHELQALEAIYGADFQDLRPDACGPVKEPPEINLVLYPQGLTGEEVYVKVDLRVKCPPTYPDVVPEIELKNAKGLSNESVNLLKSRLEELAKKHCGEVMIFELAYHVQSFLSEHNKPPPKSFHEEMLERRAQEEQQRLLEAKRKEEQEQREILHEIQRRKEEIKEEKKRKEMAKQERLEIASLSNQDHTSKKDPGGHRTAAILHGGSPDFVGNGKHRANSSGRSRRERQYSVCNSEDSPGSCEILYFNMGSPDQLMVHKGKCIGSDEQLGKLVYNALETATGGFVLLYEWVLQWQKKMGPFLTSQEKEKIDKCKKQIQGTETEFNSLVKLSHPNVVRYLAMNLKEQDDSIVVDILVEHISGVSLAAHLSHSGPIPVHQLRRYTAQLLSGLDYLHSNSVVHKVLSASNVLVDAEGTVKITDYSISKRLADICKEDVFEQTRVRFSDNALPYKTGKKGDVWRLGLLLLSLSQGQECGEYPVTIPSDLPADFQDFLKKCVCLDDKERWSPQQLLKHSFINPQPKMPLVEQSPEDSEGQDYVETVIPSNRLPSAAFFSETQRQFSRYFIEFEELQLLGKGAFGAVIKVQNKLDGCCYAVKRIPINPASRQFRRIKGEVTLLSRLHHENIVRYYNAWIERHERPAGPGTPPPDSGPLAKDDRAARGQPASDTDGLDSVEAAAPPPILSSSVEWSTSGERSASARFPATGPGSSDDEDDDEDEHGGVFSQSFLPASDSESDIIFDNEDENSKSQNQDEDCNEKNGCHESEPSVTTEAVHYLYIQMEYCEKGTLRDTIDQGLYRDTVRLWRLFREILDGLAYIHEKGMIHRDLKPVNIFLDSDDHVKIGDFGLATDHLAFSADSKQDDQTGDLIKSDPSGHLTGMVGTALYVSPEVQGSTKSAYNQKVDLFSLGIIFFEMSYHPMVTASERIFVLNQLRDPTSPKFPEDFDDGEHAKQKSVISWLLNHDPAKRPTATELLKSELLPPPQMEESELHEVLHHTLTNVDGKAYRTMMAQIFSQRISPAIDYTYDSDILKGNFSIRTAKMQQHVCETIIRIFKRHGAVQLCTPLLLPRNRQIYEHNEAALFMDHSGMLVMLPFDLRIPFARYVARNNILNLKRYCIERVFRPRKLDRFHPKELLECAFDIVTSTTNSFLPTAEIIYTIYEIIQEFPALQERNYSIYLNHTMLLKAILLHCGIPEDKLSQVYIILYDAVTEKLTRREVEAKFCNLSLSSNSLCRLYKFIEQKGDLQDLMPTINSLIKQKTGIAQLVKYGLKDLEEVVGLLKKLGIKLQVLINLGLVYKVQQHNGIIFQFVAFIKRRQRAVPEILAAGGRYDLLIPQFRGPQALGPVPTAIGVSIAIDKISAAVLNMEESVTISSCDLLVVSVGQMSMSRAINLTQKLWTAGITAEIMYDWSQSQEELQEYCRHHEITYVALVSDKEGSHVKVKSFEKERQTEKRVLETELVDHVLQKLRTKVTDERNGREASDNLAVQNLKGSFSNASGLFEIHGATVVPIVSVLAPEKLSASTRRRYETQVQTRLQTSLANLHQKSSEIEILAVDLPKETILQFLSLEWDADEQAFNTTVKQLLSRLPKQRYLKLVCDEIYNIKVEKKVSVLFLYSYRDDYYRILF

[13] = tested on: Proto-oncogene tyrosine-protein kinase receptor Ret (Homo sapiens), P07949 [M918T]; conditions: Compound concentration 1000.0 nM
[14] = tested on: Tyrosine-protein kinase ABL1 (Homo sapiens), P00519 [F317L]; conditions: Compound concentration 1000.0 nM
[15] = target: Alpha-2B adrenergic receptor (Homo sapiens) (UniProt P18089); conditions: Compound concentration 10.0 uM
[16] = target: Misshapen-like kinase 1 (Homo sapiens) (UniProt Q8N4C8); conditions: Compound concentration 1000.0 nM
[17] = target: Serine/threonine-protein kinase NLK (Homo sapiens) (UniProt Q9UBE8); conditions: Compound concentration 1000.0 nM
[18] = target: Myosin light chain kinase family member 4 (Homo sapiens) (UniProt Q86YV6); conditions: Compound concentration 1000.0 nM
[19] = target: Cyclin-dependent kinase 7 (Homo sapiens) (UniProt P50613); conditions: Compound concentration 1000.0 nM
[20] = target: Serine/threonine-protein kinase D1 (Homo sapiens) (UniProt Q15139); conditions: Compound concentration 1000.0 nM
Sequence of Serine/threonine-protein kinase D1 (Homo sapiens) (Q15139 whole entry): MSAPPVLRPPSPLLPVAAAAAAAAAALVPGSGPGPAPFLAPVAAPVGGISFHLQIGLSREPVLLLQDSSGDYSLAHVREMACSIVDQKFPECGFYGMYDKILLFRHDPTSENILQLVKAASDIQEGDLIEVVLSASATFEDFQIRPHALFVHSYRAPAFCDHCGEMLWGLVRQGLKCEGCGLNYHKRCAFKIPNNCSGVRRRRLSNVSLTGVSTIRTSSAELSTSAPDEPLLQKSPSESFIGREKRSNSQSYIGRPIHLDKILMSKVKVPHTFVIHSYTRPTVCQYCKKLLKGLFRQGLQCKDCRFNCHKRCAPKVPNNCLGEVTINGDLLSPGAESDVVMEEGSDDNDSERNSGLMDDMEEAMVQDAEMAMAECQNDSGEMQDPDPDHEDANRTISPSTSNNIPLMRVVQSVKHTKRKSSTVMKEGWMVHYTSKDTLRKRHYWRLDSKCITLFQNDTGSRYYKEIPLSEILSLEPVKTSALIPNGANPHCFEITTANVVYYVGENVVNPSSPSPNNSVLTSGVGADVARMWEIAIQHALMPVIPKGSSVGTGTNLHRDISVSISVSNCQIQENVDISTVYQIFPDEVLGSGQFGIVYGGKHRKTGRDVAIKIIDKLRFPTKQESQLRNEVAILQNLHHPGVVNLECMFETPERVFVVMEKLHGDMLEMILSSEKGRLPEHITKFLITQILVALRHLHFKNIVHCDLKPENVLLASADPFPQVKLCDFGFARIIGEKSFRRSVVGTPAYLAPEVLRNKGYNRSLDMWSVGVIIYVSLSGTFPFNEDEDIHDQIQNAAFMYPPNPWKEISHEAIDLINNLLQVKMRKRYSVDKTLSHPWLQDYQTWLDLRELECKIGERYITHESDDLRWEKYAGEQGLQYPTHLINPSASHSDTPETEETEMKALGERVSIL

[21] = target: Serine/threonine-protein kinase PLK2 (Homo sapiens) (UniProt Q9NYY3); conditions: Compound concentration 1000.0 nM
[22] = target: Leukocyte tyrosine kinase receptor (Homo sapiens) (UniProt P29376); conditions: Compound concentration 1000.0 nM
Sequence of Leukocyte tyrosine kinase receptor (Homo sapiens) (P29376 whole entry): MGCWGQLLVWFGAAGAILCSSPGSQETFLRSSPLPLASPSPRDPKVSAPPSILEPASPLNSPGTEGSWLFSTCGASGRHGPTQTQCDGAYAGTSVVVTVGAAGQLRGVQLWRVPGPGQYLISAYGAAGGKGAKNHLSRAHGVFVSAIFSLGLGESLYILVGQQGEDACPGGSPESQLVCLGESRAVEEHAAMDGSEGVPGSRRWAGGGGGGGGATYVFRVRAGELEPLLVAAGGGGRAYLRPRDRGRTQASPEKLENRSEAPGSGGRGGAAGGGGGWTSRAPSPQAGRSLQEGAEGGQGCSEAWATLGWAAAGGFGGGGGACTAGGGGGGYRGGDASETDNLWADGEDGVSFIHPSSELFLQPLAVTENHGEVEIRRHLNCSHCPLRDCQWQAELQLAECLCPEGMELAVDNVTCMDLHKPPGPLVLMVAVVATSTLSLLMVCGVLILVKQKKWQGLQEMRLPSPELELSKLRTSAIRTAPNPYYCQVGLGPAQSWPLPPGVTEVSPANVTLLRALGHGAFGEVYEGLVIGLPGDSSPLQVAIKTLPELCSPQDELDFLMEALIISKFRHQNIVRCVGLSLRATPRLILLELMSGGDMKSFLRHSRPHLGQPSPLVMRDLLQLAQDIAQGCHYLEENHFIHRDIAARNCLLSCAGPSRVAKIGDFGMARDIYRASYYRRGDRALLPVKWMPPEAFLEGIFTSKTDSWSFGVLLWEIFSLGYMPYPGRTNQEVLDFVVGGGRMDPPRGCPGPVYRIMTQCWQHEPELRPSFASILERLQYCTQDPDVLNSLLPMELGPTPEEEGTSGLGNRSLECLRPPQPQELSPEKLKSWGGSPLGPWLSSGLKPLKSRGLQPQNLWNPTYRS

[23] = target: Death-associated protein kinase 2 (Homo sapiens) (UniProt Q9UIK4); conditions: Compound concentration 1000.0 nM
[24] = tested on: Epidermal growth factor receptor (Homo sapiens), P00533 [UNDEFINED MUTATION]; conditions: Compound concentration 1000.0 nM
[25] = target: Mitogen-activated protein kinase 12 (Homo sapiens) (UniProt P53778); conditions: Compound concentration 1000.0 nM
[26] = target: Tyrosine-protein kinase Fer (Homo sapiens) (UniProt P16591); conditions: Compound concentration 1000.0 nM
[27] = target: Serine/threonine-protein kinase Sgk2 (Homo sapiens) (UniProt Q9HBY8); conditions: Compound concentration 1000.0 nM
[28] = target: Platelet-derived growth factor receptor alpha (Homo sapiens) (UniProt P16234); conditions: Compound concentration 1000.0 nM
[29] = target: Proto-oncogene tyrosine-protein kinase Src (Homo sapiens) (UniProt P12931); conditions: Compound concentration 1000.0 nM
Sequence of Proto-oncogene tyrosine-protein kinase Src (Homo sapiens) (P12931 2-536 limits assumed): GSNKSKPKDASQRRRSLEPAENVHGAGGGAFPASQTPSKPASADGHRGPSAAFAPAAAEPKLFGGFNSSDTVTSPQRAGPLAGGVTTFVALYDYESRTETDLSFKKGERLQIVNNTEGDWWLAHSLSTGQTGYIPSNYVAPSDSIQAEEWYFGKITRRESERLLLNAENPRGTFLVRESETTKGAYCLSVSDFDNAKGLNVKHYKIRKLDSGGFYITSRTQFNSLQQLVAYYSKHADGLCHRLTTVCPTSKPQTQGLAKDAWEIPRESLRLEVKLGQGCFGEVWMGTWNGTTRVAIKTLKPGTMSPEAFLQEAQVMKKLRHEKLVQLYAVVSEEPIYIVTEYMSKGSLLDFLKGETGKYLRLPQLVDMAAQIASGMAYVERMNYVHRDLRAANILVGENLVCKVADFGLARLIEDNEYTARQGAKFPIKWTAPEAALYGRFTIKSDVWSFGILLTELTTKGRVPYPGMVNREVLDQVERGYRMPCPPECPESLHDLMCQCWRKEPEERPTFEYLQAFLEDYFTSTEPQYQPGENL

[30] = tested on: Phosphatidylinositol 4,5-bisphosphate 3-kinase catalytic subunit alpha isoform (Homo sapiens), P42336 [C420R]; conditions: Compound concentration 1000.0 nM
[31] = target: Sodium-dependent serotonin transporter (Homo sapiens) (UniProt P31645); conditions: Compound concentration 10.0 uM
[32] = target: Muscarinic acetylcholine receptor M4 (Homo sapiens) (UniProt P08173); conditions: Compound concentration 10.0 uM
[33] = target: Mitogen-activated protein kinase kinase kinase 4 (Homo sapiens) (UniProt Q9Y6R4); conditions: Compound concentration 1000.0 nM
[34] = target: Myosin light chain kinase (Homo sapiens) (UniProt Q32MK0); conditions: Compound concentration 1000.0 nM
[35] = target: Mast/stem cell growth factor receptor Kit (Homo sapiens) (UniProt P10721); conditions: Compound concentration 1000.0 nM
[36] = target: BDNF/NT-3 growth factors receptor (Homo sapiens) (UniProt Q16620); conditions: Compound concentration 1000.0 nM
[37] = target: Testis-specific serine/threonine-protein kinase 3 (Homo sapiens) (UniProt Q96PN8); conditions: Compound concentration 1000.0 nM
[38] = target: 5-hydroxytryptamine receptor 7 (Homo sapiens) (UniProt P34969); conditions: Compound concentration 10.0 uM
[39] = target: Cyclin-dependent kinase 14 (Homo sapiens) (UniProt O94921); conditions: Compound concentration 1000.0 nM
[40] = target: AP2-associated protein kinase 1 (Homo sapiens) (UniProt Q2M2I8); conditions: Compound concentration 1000.0 nM
[41] = target: Mitogen-activated protein kinase kinase kinase 9 (Homo sapiens) (UniProt P80192); conditions: Compound concentration 1000.0 nM
Sequence of Mitogen-activated protein kinase kinase kinase 9 (Homo sapiens) (P80192 whole entry, looked up): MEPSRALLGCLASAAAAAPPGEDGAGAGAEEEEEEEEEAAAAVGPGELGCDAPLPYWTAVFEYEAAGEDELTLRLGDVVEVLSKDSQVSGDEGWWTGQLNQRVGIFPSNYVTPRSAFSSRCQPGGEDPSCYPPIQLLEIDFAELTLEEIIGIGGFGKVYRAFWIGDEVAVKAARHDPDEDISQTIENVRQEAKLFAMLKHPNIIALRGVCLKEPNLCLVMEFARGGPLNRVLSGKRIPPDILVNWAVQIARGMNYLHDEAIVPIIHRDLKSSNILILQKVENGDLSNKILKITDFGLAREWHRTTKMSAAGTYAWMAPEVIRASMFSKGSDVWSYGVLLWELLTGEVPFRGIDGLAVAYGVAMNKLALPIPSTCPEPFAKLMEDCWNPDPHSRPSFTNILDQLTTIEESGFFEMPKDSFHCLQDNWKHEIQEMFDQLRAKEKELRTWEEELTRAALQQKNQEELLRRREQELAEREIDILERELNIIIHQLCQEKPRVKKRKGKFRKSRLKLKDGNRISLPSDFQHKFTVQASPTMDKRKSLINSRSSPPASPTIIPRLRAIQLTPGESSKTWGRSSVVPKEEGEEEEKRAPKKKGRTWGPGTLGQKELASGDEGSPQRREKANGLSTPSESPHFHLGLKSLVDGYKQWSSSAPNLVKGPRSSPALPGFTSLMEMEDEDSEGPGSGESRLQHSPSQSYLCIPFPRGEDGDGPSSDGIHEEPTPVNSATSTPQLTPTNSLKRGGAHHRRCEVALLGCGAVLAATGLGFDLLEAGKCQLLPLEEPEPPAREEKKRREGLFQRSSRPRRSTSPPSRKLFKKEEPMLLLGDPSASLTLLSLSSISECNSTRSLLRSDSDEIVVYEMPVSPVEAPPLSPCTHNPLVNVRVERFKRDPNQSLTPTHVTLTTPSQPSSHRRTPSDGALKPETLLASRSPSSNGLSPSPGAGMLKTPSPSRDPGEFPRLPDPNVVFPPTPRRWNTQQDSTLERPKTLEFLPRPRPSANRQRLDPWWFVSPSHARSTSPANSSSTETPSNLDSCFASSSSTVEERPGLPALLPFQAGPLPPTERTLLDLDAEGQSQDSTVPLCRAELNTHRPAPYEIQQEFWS

[42] = target: Serine/threonine-protein kinase WNK2 (Homo sapiens) (UniProt Q9Y3S1); conditions: Compound concentration 1000.0 nM
[43] = target: Beta-adrenergic receptor kinase 1 (Homo sapiens) (UniProt P25098); conditions: Compound concentration 1000.0 nM
[44] = target: Tyrosine-protein kinase Tec (Homo sapiens) (UniProt P42680); conditions: Compound concentration 1000.0 nM
[45] = target: Serine/threonine-protein kinase 17A (Homo sapiens) (UniProt Q9UEE5); conditions: Compound concentration 1000.0 nM

O=C(O)[C@H]1[C@H](Cn2nnc3ccccc3c2=O)CC[C@@H]1C(=O)c1ccc(OCCC2CCOCC2)cc1 [BAY-7598]
inactive: residual activity [1] 77% | residual activity [2] 76% | residual activity [3] 93% | residual activity [4] 96% | residual activity [5] 100% | residual activity [6] 85% | residual activity [7] 97% | residual activity [8] 75% | residual activity [9] 99% | residual activity [10] 100% | residual activity [11] 75% | residual activity [12] 55% | residual activity [13] 76% | residual activity [14] 75% | inhibition [15] 3.34% | residual activity [16] 100% | residual activity [17] 100% | residual activity [18] 100% | residual activity [19] 95% | residual activity [20] 85% | residual activity [21] 100% | residual activity [22] 100% | residual activity [23] 100% | residual activity [24] 80% | residual activity [25] 93% | residual activity [26] 90% | residual activity [27] 92% | residual activity [28] 100% | residual activity [29] 89% | residual activity [30] 100% | inhibition [31] 13.9% | inhibition [32] -5.24% | residual activity [33] 100% | residual activity [34] 93% | residual activity [35] 95% | residual activity [36] 75% | residual activity [37] 85% | inhibition [38] -3.55% | residual activity [39] 100% | residual activity [40] 78% | residual activity [41] 81% | residual activity [42] 99% | residual activity [43] 61% | residual activity [44] 100% | residual activity [45] 97%

O=C(O)[C@@H]1[C@@H](Cn2nnc3ccccc3c2=O)CC[C@H]1C(=O)c1ccc(OCCC2CCOCC2)cc1 [BAY-694]
inactive: residual activity [1] 94% | residual activity [2] 76% | residual activity [3] 96% | residual activity [4] 100% | residual activity [5] 100% | residual activity [6] 97% | residual activity [7] 83% | residual activity [8] 80% | residual activity [9] 100% | residual activity [10] 90% | residual activity [11] 100% | residual activity [12] 100% | residual activity [13] 100% | residual activity [14] 86% | inhibition [15] 8.62% | residual activity [16] 100% | residual activity [17] 86% | residual activity [18] 100% | residual activity [19] 86% | residual activity [20] 100% | residual activity [21] 92% | residual activity [22] 100% | residual activity [23] 100% | residual activity [24] 95% | residual activity [25] 100% | residual activity [26] 87% | residual activity [27] 79% | residual activity [28] 100% | residual activity [29] 89% | residual activity [30] 100% | inhibition [31] 10.2% | inhibition [32] -7.11% | residual activity [33] 91% | residual activity [34] 72% | residual activity [35] 89% | residual activity [36] 93% | residual activity [37] 100% | inhibition [38] -2.99% | residual activity [39] 100% | residual activity [40] 100% | residual activity [41] 100% | residual activity [42] 82% | residual activity [43] 78% | residual activity [44] 95% | residual activity [45] 98%
